What was measured:
[1] = test system: HLA-DQ8; settings: cited from earlier work
Source text: (§1) Yang et al.[39] described a TRBV5-1^+ HLA-DQ8 restricted T cell clone isolated by insulin B:9-23 peptide (B:9-23 […]) tetramer staining. […] The set of mutations comprised P1AtoE, P6CtoA and P9RtoE and P11FtoC ([…]; mutated residues in italics, P1-P9 register in bold)[22],[24],[39]. This engineered epitope was used as a model put forw ...

[2] = test system: T1D3 T cell clone; settings: cited from earlier work
Source text: as §1

[3] = test system: CD4+ T cell clone A1.9; assay: T cell stimulation assay, IFNγ ELISA, clone A1.9; type: cell-based, human; settings: primary clone A1.9, APC EBV-KJ, 24 h, 31-mer C-peptide versus 15mer HIP titration
Protocol: Fig. 2 Comparison of the stimulatory capacity of full-length proinsulin C-peptide and HIP on T1D CD4 + T cell clones. […] Titration of full-length 31-mer C-peptide ([…], (open circles) and 15mer C-peptide-IAPP2 HIP ([…] (filled circles). Antigen presenting cells (APC) were the EBV line, EBV-KJ, (2 × 10^4 cells/well). APC were cultured for 24 h with the same number (2 × 10^4 cells/well) of the primary CD4 + T-cell clone and the peptide concentration indicated. T-cell response to peptide were indicated by secretion of IFNγ which was measured in triplicate by ELISA and reported as pg/ml. Mean and standard deviations of triplicate IFNγ measurements are shown. Results are representative of two experiments for each clone.
For primary T1D CD4+ T cell clones, cells were thawed and used directly in functional assays. For T cell stimulation assays, cloned CD4+ T cells were incubated with BLCL KJ (; HLA-DQ8 + : HLA-DQA1*03:01, HLA-DQB1*03:02), as APCs, together with synthetic peptides. For the alanine scan experiments, each peptide was added to a final concentration of 10 μM. T cell response to antigen was measured as interferon gamma (IFNγ) secretion into the culture media. The IFNγ concentration in the culture media was determined by ELISA (Biolegend).
Supplementary Figure 8. […]
type) at each position P-3 to P12 are shown. IFNγ was measured in triplicate by ELISA, concentrations are shown in pg/ml. […]

[4] = test system: T cells; settings: HIP from MHC-II peptidome of pancreatic islets and lymph nodes of NOD mice; cited from earlier work
[5] = test system: HLA-DQ8; assay: Size exclusion chromatography, aggregate versus monomer of HLA-DQ8-peptide; type: physicochemical, human; settings: SEC, data not shown
Source text: The proinsulin C-peptide epitope (PI40-54 […]; predicted binding register in bold) lacks both a preferred acidic residue at P9 and aliphatic residue at P4, whereas HIP ([…]) lacks the preferred P4 residue. […] To overcome this, as undertaken previously with a modified B:11-23 peptide and HLA-DQ8[22], we engineered a construct with a disulfide bond between p11 of the HIP peptide or proinsulin C-peptide and HLA-DQ8α I72C to produce HLA-DQ8αΙ72C-CpepL11C (HLA-DQ8-CpepL11C; […]; predicted binding register in bold, P11Cys in italics) and HLA-DQ8αΙ72C-HIPL11C (HLA-DQ8-HIPL11C; […]; predicted binding register in bold, proinsulin C-peptide derived underlined, IAPP2 derived bold italics and P11Cys italics).

## SHLVEALYLVCGERG [B:9-23]
[1]
  affinity for HLA-DQ8: poor affinity
[2]
  reactivity of / recognition by TRBV5-1+ T1D3: low reactivity

## EAEDLQVGQVELGGGPGAGSLQPLALEGSLQ [proinsulin C-peptide, full-length 31-mer proinsulin C-peptide, reference compound]
[3]
  response of clone to HIP versus proinsulin C-peptide: responds equally to proinsulin C-peptide or HIP

## LQTLAL–NAARD [proinsulin C-peptide-IAPP2 HIP from NOD mice]
[4]
  T cell autoreactivity: had T cell autoreactivity

## LVEELYLVAGEEGC [engineered insulin B:9-23 peptide]
[2]
  reactivity of / recognition by TRBV5-1+ T1D3: recognised by the TRBV5-1^+ T1D3 TCR

## GQVELGGGPGAGSLQ [PI40-54, reference compound]
[5]
  stability of HLA-DQ8 complex (ratio of aggregate versus monomer): unstable HLA-DQ8 binary complexes

Source: publication PMC8387461, “T cell receptor recognition of hybrid insulin peptides bound to HLA-DQ8” (Nature Communications, 2021)
